Assay results: ChEMBL document CHEMBL5346874, “New antiplasmodial 4-amino-thieno[3,2-d]pyrimidines with improved intestinal permeability and microsomal stability” (Eur J Med Chem, 2023)

How the values were obtained:
[1] = (§1) Cytotoxicity against cynomolgus monkey Primary hepatocyte assessed as cell viability; format: toxicity, cell-based, Macaca fascicularis; conditions: primary hepatocytes
[2] = Selectivity index, ratio of CC50 for against Macaca fascicularis Primary hepatocyte to EC50 for hepatic stage of Plasmodium berghei sporozoites GFP ANKA; format: toxicity; conditions: cynomolgus monkey, primary hepatocytes; read-out: Ratio CC50/EC50
Plasmodium falciparum = experiment: Antiplasmodial activity against blood stage Plasmodium falciparum K1 assessed as reduction in parasite growth incubated for 72 hrs by SYBR Green I fluorescence based method; format: functional, organism-based
Plasmodium berghei = experiment: Antimalarial activity against hepatic stage of Plasmodium berghei sporozoites GFP ANKA incubated for 3 hrs followed by replacement with fresh media for every 24 hrs by immunostaining analysis; format: functional, organism-based
[3] = Effective permeability of compound at pH 6.0 incubated for 4 hrs by PAMPA-GIT assay; format: ADME; conditions: read-out: Peff
Hepatocyte = experiment: as §1; format: toxicity, cell-based, Macaca fascicularis; conditions: hepatocytes
[4] = Metabolic stability in CD-1 mouse liver microsomes assessed as half life at pH 7.4 measured upto 40 mins in presence of NADP; format: ADME, Microsome
[5] = Effective permeability of compound at pH 5 incubated for 4 hrs by PAMPA-GIT assay; format: ADME; conditions: read-out: Peff
[6] = Effective permeability of compound at pH 7.4 incubated for 4 hrs by PAMPA-GIT assay; format: ADME; conditions: read-out: Peff
[7] = Chromatographic hydrophobicity index, log D of the compound at pH 7.4 by HPLC analysis; format: physicochemical
[8] = Solubility of the compound in PBS buffer at 1 mg incubated for 10 mins by HPLC analysis; format: physicochemical
[9] = biological target: Voltage-gated inwardly rectifying potassium channel KCNH2 (Homo sapiens, UniProt Q12809); experiment: Inhibition of human ERG incubated for 4 hrs by fluorescence polarization assay; format: toxicity
[10] = Metabolic stability in CD-1 mouse liver microsomes assessed as intrinsic clearance at pH 7.4 measured upto 40 mins in presence of NADP; format: ADME, Microsome; conditions: read-out: CLH
[11] = Plasmodium falciparum, K1, 72 h

Sequence of Voltage-gated inwardly rectifying potassium channel KCNH2 (Q12809 whole entry): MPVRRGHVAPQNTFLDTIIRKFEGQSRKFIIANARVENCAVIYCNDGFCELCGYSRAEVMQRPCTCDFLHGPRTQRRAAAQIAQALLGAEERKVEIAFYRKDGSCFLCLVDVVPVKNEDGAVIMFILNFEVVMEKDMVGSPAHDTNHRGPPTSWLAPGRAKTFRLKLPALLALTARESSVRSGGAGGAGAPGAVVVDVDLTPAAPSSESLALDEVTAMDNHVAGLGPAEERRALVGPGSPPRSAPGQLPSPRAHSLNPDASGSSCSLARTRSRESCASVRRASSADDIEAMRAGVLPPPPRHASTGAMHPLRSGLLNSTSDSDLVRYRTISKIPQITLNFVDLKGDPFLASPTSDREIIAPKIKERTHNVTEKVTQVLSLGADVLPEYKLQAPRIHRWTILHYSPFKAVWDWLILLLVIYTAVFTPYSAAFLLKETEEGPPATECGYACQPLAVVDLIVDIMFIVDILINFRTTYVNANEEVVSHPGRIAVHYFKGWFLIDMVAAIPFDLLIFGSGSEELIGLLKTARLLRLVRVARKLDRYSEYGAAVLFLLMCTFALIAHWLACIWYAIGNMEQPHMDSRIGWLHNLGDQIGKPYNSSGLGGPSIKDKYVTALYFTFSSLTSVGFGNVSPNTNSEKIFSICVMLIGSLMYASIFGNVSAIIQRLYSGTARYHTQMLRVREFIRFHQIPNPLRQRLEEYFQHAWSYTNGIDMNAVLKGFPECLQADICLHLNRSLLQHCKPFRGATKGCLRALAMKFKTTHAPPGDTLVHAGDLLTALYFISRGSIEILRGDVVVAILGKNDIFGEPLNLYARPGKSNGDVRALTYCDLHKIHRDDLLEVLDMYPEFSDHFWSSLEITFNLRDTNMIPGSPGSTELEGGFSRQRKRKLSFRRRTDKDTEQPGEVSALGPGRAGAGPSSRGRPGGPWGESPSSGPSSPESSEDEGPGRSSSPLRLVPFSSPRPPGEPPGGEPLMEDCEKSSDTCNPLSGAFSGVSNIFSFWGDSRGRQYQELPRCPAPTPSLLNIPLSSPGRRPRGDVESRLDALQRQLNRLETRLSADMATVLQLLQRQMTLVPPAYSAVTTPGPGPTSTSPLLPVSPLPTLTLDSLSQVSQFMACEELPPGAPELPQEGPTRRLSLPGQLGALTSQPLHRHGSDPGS

Row | SMILES | CC50 [1] | selectivity ratio [2] | EC50 (Plasmodium falciparum; [11]) | EC50 (Plasmodium berghei; Plasmodium berghei, GFP ANKA) | other results
1 | Cc1ccc(-c2cc3nc(NC(C)(C)C)nc(N4CCC4)c3s2)cc1 | 25.8 µM | 1.7 | 0.7 µM | 15.1 µM | –
2 | Cc1ccc(-c2cc3nc(NC(C)(C)C)nc(NC4CCC4)c3s2)cc1 | 8.8 µM | 1.3 | 0.9 µM | 6.5 µM | –
3 | Cc1ccc(-c2cc3nc(NC(C)(C)C)nc(N4CCC(NC(=O)OC(C)(C)C)CC4)c3s2)cc1 | – | – | 2.1 µM | – | –
4 | Cc1ccc(-c2cc3nc(NC(C)(C)C)nc(N4CCC(NCc5ccc(Br)cc5)CC4)c3s2)cc1 | 20.7 µM | 1.6 | 0.7 µM | 13.1 µM | –
5 | CCN(CC)CCNc1nc(NC(C)(C)C)nc2cc(-c3ccc(C)cc3)sc12.Cl.Cl | – | – | – | – | Papp at 4 h [3]: 52.1 ×10⁻⁶ cm/s; CC50 (Hepatocyte): 59.1 µM; half-life [4]: 37 min; Papp at 4 h [5]: 51.2 ×10⁻⁶ cm/s; Papp at 4 h [6]: 73.9 ×10⁻⁶ cm/s; chromatographic logD [7]: 4.81; solubility at 10 min [8]: 1140 µM; IC50 [9]: 1.07 µM; EC50 (Plasmodium berghei): 14.4 µM; microsomal CLint [10]: 63 µL/min/mg
6 | Cc1ccc(-c2cc3nc(NC(C)(C)C)nc(N4CCC(NCc5cccc(C(F)(F)F)c5)CC4)c3s2)cc1 | – | – | 1.3 µM | – | –
7 | Cc1ccc(-c2cc3nc(NC(C)(C)C)nc(N4CCC(NCc5ccccc5)CC4)c3s2)cc1 | 43.6 µM | 2.7 | 0.7 µM | 16.1 µM | –
8 | Cc1ccc(-c2cc3nc(NC(C)(C)C)nc(NCCCN(C)C)c3s2)cc1.Cl.Cl | – | – | – | – | Papp at 4 h [3]: 47.8 ×10⁻⁶ cm/s; CC50 (Hepatocyte): 35.5 µM; EC50 (Plasmodium falciparum): 0.2 µM; half-life [4]: > 40 min; Papp at 4 h [5]: 36.2 ×10⁻⁶ cm/s; Papp at 4 h [6]: 67.3 ×10⁻⁶ cm/s; chromatographic logD [7]: 4.29; solubility at 10 min [8]: 1990 µM; IC50 [9]: > 100 µM; EC50 (Plasmodium berghei): 14.4 µM; microsomal CLint [10]: 33 µL/min/mg
9 | Cc1ccc(-c2cc3nc(NC(C)(C)C)nc(NCCN(C)C)c3s2)cc1.Cl.Cl | – | – | – | – | Papp at 4 h [3]: 41.1 ×10⁻⁶ cm/s; CC50 (Hepatocyte): 32.5 µM; EC50 (Plasmodium falciparum): 0.4 µM; half-life [4]: 37 min; Papp at 4 h [5]: 43 ×10⁻⁶ cm/s; Papp at 4 h [6]: 64.9 ×10⁻⁶ cm/s; chromatographic logD [7]: 4.5; solubility at 10 min [8]: 1640 µM; IC50 [9]: 3.4 µM; EC50 (Plasmodium berghei): 14.2 µM; microsomal CLint [10]: 64 µL/min/mg
10 | C[C@H]1c2cccc(O)c2C(=O)C2=C(O)[C@]3(O)C(=O)C(C(N)=O)=C(O)[C@@H](N(C)C)[C@@H]3[C@@H](O)[C@@H]21 [DOXYCYCLINE] | – | – | 5 µM | – | –
11 | Cc1ccc(CSc2cnc(NC(C)(C)C)nc2N2CCC(NCc3cccc(Cl)c3)CC2)cc1 | – | – | 1.2 µM | – | –
12 | Cc1ccc(-c2cc3nc(NC(C)(C)C)nc(NC4CCCC4)c3s2)cc1 | – | – | 1.3 µM | – | –
13 | Cc1ccc(-c2cc3nc(NC(C)(C)C)nc(N4CCN(C)CC4)c3s2)cc1 | – | – | 1.2 µM | – | –
14 | Cc1ccc(-c2cc3nc(NC(C)(C)C)nc(NC4CC4)c3s2)cc1 | – | – | 1.1 µM | – | –
15 | Cc1ccc(-c2cc3nc(NC(C)(C)C)[nH]c(=O)c3s2)cc1 | > 200 µM | > 8.2 | 0.2 µM | 24.3 µM | –
16 | Cc1ccc(CNC2CCN(c3nc(NC(C)(C)C)nc4cc(-c5ccc(C)cc5)sc34)CC2)cc1 | 35.5 µM | 2.3 | 0.7 µM | 15.4 µM | –
17 | Cc1ccc(-c2cc3nc(NC(C)(C)C)nc(N4CCSCC4)c3s2)cc1 | – | – | 4.9 µM | – | –
18 | COc1ccc(CNC2CCN(c3nc(NC(C)(C)C)nc4cc(-c5ccc(C)cc5)sc34)CC2)cc1 | 28.6 µM | 2 | 0.5 µM | 14 µM | –

Row | SMILES | CC50 [1] | selectivity ratio [2] | EC50 (Plasmodium falciparum; [11]) | EC50 (Plasmodium berghei; Plasmodium berghei, GFP ANKA) | other results
19 | Cc1ccc(-c2cc3nc(NC(C)(C)C)nc(NCCN(C)C)c3s2)cc1 | – | 1 | 0.3 µM | 13.8 µM | CC50 (Hepatocyte): 14 µM
20 | Cc1ccc(-c2cc3nc(NC(C)(C)C)nc(N4CCCC4)c3s2)cc1 | 17.5 µM | 1.2 | 0.9 µM | 14.3 µM | –
21 | Cc1ccc(-c2cc3nc(NC(C)(C)C)nc(N4CCC(N)CC4)c3s2)cc1 | 31.6 µM | 1 | 1 µM | 31.4 µM | –
22 | Cc1ccc(-c2cc3nc(NC(C)(C)C)[nH]c(=O)c3s2)cc1.Cl | – | – | – | – | half-life [4]: 11 min; Papp at 4 h [6]: 0.46 ×10⁻⁶ cm/s; chromatographic logD [7]: 4.1; solubility at 10 min [8]: 7.92 µM; microsomal CLint [10]: 240 µL/min/mg
23 | CCN(CC)CCCNc1nc(NC(C)(C)C)nc2cc(-c3ccc(C)cc3)sc12 | 25.8 µM | 2.2 | 0.2 µM | 11.5 µM | –
24 | Cc1ccc(-c2cc3nc(NC(C)(C)C)nc(N4CCNCC4)c3s2)cc1 | – | – | 1.6 µM | – | –
25 | Cc1ccc(-c2cc3nc(NC(C)(C)C)nc(N4CCCCC4)c3s2)cc1 | – | – | 1.2 µM | – | –
26 | CCN(CC)CCNc1nc(NC(C)(C)C)nc2cc(-c3ccc(C)cc3)sc12 | 32.6 µM | 2.2 | 0.3 µM | 14.6 µM | –
27 | Cc1ccc(-c2cc3nc(NC(C)(C)C)nc(N4CCC(NCc5ccc([N+](=O)[O-])cc5)CC4)c3s2)cc1 | 15.8 µM | 2.2 | 0.7 µM | 7.3 µM | –
28 | Cc1ccc(-c2cc3nc(NC(C)(C)C)nc(N4CCOCC4)c3s2)cc1 | – | – | 1.6 µM | – | –
29 | Cc1ccc(-c2cc3nc(NC(C)(C)C)nc(N4CCC(NCc5ccc(Cl)cc5)CC4)c3s2)cc1 | 36.1 µM | 2.5 | 1 µM | 14.2 µM | –
30 | CCN(CC)CCCNc1nc(NC(C)(C)C)nc2cc(-c3ccc(C)cc3)sc12.Cl.Cl | – | – | – | – | Papp at 4 h [3]: 46.6 ×10⁻⁶ cm/s; CC50 (Hepatocyte): 27.6 µM; half-life [4]: 37 min; Papp at 4 h [5]: 48.9 ×10⁻⁶ cm/s; Papp at 4 h [6]: 63.1 ×10⁻⁶ cm/s; chromatographic logD [7]: 4.23; solubility at 10 min [8]: 1400 µM; IC50 [9]: 1.41 µM; EC50 (Plasmodium berghei): 12.3 µM; microsomal CLint [10]: 61 µL/min/mg
31 | Cc1ccc(-c2cc3nc(NC(C)(C)C)nc(NCCCN(C)C)c3s2)cc1 | – | > 6.5 | 0.3 µM | 15.3 µM | CC50 (Hepatocyte): > 100 µM
32 | CCN(CC)CCCC(C)Nc1ccnc2cc(Cl)ccc12 (stereo not given) [CHLOROQUINE] | – | – | 0.8 µM | – | –
33 | Cc1ccc(-c2cc3nc(NC(C)(C)C)nc(N4CCC(NCc5ccc(C(F)(F)F)cc5)CC4)c3s2)cc1 | – | – | 1.7 µM | – | –
34 | Cc1ccc(-c2cc3nc(NC(C)(C)C)nc(N4CCC(C)CC4)c3s2)cc1 | 52.5 µM | 1.5 | 0.7 µM | 35.3 µM | –
35 | Cc1ccc(-c2cc3nc(NC(C)(C)C)nc(NC4CCCCC4)c3s2)cc1 | – | – | 2.5 µM | – | –
